US20100267561A1, “HERBICIDAL PYRIDAZINONE DERIVATIVES” (priority 2007, published 2010)

Key:
Assay type in all cases: in vivo
[1] = tested on: soybean (Glycine max); test: Test B pre-/postemergence plant response
Outline: (§1)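 Preemergence and postemergence (plants 2-18 cm, 1- to 4-leaf stage) applications used test chemicals in a non-phytotoxic solvent with surfactant. Plants were held in a greenhouse 13 to 15 days, then rated visually against controls on a 0-100 scale (0 no effect, 100 complete control).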

[2] = tested on: cocklebur (Xanthium strumarium); test: Test B pre-/postemergence plant response; conditions: for Cocklebur plant response rating: 8 g ai/ha
Outline: as §1

[3] = tested on: goosegrass (Eleusine indica); test: Test B pre-/postemergence plant response
Outline: as §1

[4] = tested on: bermudagrass (Cynodon dactylon); test: Test B pre-/postemergence plant response; conditions: for Bermudagrass plant response rating: 8 g ai/ha
Outline: as §1

[5] = tested on: large crabgrass (Digitaria sanguinalis); test: Test B pre-/postemergence plant response
Outline: as §1

[6] = tested on: Italian ryegrass (Lolium multiflorum); test: Test B pre-/postemergence plant response
Outline: as §1

[7] = tested on: Russian thistle (Salsola iberica); test: Test B pre-/postemergence plant response; conditions: Preemergence; for Russian Thistle plant response rating: scale 0 to 100
Outline: as §1

[8] = tested on: velvetleaf (Abutilon theophrasti); test: Test B pre-/postemergence plant response
Outline: as §1

[9] = tested on: lambsquarters (Chenopodium album); test: Test B pre-/postemergence plant response; conditions: for Lambsquarters plant response rating: postemergence, 0-100 scale; for Plant response rating, Lambsquarters: Postemergence
Outline: as §1

[10] = tested on: common ragweed (Ambrosia elation); test: Test B pre-/postemergence plant response
Outline: as §1

[11] = tested on: ducksalad (Heteranthera limosa); test: Test B flooded paddy test plant response
Outline: (§2)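 Rice, umbrella sedge, ducksalad and barnyardgrass at 2-leaf stage; pots flooded to 3 cm, compounds applied into paddy water, depth held throughout. Greenhouse 13 to 15 days, then visual rating vs untreated controls on 0–100 scale (0 no effect, 100 complete control); dash means no test result.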

[12] = tested on: barnyardgrass (Echinochloa crus-galli); test: Test B flooded paddy test plant response
Outline: as §2

[13] = tested on: rice (Oryza sativa); test: Test B flooded paddy test plant response
Outline: as §2

[14] = tested on: umbrella sedge (Cyperus difformis); test: Test B flooded paddy test plant response
Outline: as §2

[15] = 8 g ai/ha, postemergence, 0-100 scale
[16] = 16 g ai/ha, postemergence, 0-100 scale
[17] = Postemergence, 31 g ai/ha, scale 0 to 100
[18] = Postemergence, 62 g ai/ha, scale 0 to 100, 0 no effect, 100 complete control
[19] = Preemergence, 31 g ai/ha, scale 0 to 100 (0 no effect, 100 complete control)
[20] = Preemergence, 62 g ai/ha, 0 to 100 scale, 0 no effect, 100 complete control
[21] = Preemergence, 8 g ai/ha, scale 0 to 100
[22] = Preemergence, 16 g ai/ha, scale 0 to 100
[23] = Postemergence, 16 g ai/ha, scale 0 to 100
[24] = Preemergence, 16 g ai/ha, scale 0 to 100 (0 no effect, 100 complete control)
[25] = Flood (flooded paddy test), 62 g ai/ha, scale 0 to 100, 0 no effect, 100 complete control
[26] = Flood (flooded paddy test), 125 g ai/ha, scale 0 to 100, 0 no effect, 100 complete control
[27] = Flood (flooded paddy test), 250 g ai/ha, scale 0 to 100, 0 no effect, 100 complete control
[28] = Flood, 31 g ai/ha, scale 0 to 100

CCc1cc(-c2ccc(C(F)(F)F)cc2)nn1-c1c(O)c(OC)nn(C)c1=O [Compound 66]
Soybean plant response rating [1, 15]: 0
Soybean plant response rating [1, 16]: 0
Plant response rating, Soybean [1, 17]: 0
Plant response rating, Soybean [1, 18]: 0
Plant response rating, Soybean [1, 19]: 0
Plant response rating, Soybean [1, 20]: 0
Soybean plant response rating [1, 21]: 0
Soybean plant response rating [1, 22]: 0
Cocklebur plant response rating ([2]; postemergence, 0-100 scale): 0
Plant response rating, Cocklebur [2, 23]: 0
Plant response rating, Cocklebur [2, 17]: 0
Plant response rating, Cocklebur [2, 18]: 0
Plant response rating, Cocklebur [2, 24]: 0
Plant response rating, Cocklebur [2, 19]: 0
Plant response rating, Cocklebur [2, 20]: 0
Cocklebur plant response rating ([2]; Preemergence, scale 0 to 100): 0
Goosegrass plant response rating [3, 15]: 70
Goosegrass plant response rating [3, 16]: 75
Plant response rating, Goosegrass [3, 17]: 85
Plant response rating, Goosegrass [3, 18]: 98
Plant response rating, Goosegrass [3, 19]: 25
Plant response rating, Goosegrass [3, 20]: 70
Goosegrass plant response rating [3, 21]: 0
Goosegrass plant response rating [3, 22]: 0
Bermudagrass plant response rating ([4]; postemergence, 0-100 scale): 20
Plant response rating, Bermudagrass [4, 23]: 98
Plant response rating, Bermudagrass [4, 17]: 100
Plant response rating, Bermudagrass [4, 18]: 100
Bermudagrass plant response rating ([4]; Preemergence, scale 0 to 100 (0 no effect, 100 complete control)): 0
Plant response rating, Bermudagrass [4, 24]: 85
Plant response rating, Bermudagrass [4, 19]: 98
Plant response rating, Bermudagrass [4, 20]: 100
Crabgrass, Large plant response rating [5, 15]: 70
Plant response rating, Crabgrass, Large [5, 23]: 85
Plant response rating, Crabgrass, Large [5, 17]: 98
Plant response rating, Crabgrass, Large [5, 18]: 100
Plant response rating, Crabgrass, Large [5, 19]: 60
Plant response rating, Crabgrass, Large [5, 20]: 80
Crabgrass, Large plant response rating [5, 21]: 0
Crabgrass, Large plant response rating [5, 22]: 0
Ryegrass, Italian plant response rating [6, 15]: 60
Ryegrass, Italian plant response rating [6, 16]: 100
Plant response rating, Ryegrass, Italian [6, 17]: 100
Plant response rating, Ryegrass, Italian [6, 18]: 100
Plant response rating, Ryegrass, Italian [6, 19]: 100
Plant response rating, Ryegrass, Italian [6, 20]: 100
Ryegrass, Italian plant response rating [6, 21]: 100
Ryegrass, Italian plant response rating [6, 22]: 100
Plant response rating, Russian Thistle ([7]; 31 g ai/ha, scale 0 to 100 (0 no effect, 100 complete control)): 0
Plant response rating, Russian Thistle ([7]; 62 g ai/ha, 0 to 100 scale, 0 no effect, 100 complete control): 0
Russian Thistle plant response rating ([7]; 8 g ai/ha): 0
Russian Thistle plant response rating ([7]; 16 g ai/ha): 0
Velvetleaf plant response rating [8, 15]: 0
Velvetleaf plant response rating [8, 16]: 0
Plant response rating, Velvetleaf [8, 17]: 0
Plant response rating, Velvetleaf [8, 18]: 0
Plant response rating, Velvetleaf [8, 19]: 0
Plant response rating, Velvetleaf [8, 20]: 0
Velvetleaf plant response rating [8, 21]: 0
Velvetleaf plant response rating [8, 22]: 0
Lambsquarters plant response rating ([9]; 8 g ai/ha): 0
Lambsquarters plant response rating ([9]; 16 g ai/ha): 0
Plant response rating, Lambsquarters ([9]; 31 g ai/ha, scale 0 to 100): 0
Plant response rating, Lambsquarters ([9]; 62 g ai/ha, scale 0 to 100, 0 no effect, 100 complete control): 0
Ragweed plant response rating [10, 15]: 0
Ragweed plant response rating [10, 16]: 0
Plant response rating, Ragweed [10, 17]: 0
Plant response rating, Ragweed [10, 18]: 0
Plant response rating, Ragweed [10, 20]: 0
Ragweed plant response rating [10, 21]: 0
Ragweed plant response rating [10, 22]: 0
Plant response rating, Ducksalad [11, 25]: 0
Plant response rating, Ducksalad [11, 26]: 0
Plant response rating, Ducksalad [11, 27]: 0
Plant response rating, Ducksalad [11, 28]: 0
Plant response rating, Barnyardgrass [12, 25]: 0
Plant response rating, Barnyardgrass [12, 26]: 20
Plant response rating, Barnyardgrass [12, 27]: 20
Plant response rating, Barnyardgrass [12, 28]: 0
Plant response rating, Rice [13, 25]: 0
Plant response rating, Rice [13, 26]: 0
Plant response rating, Rice [13, 27]: 30
Plant response rating, Rice [13, 28]: 0
Plant response rating, Sedge, Umbrella [14, 25]: 0
Plant response rating, Sedge, Umbrella [14, 26]: 0
Plant response rating, Sedge, Umbrella [14, 27]: 0
Plant response rating, Sedge, Umbrella [14, 28]: 0
